Target: T1, CYP3A4(M) (Homo sapiens, UniProt P08684)
T1 construct: Pooled human liver microsomes were purchased from BD Gentest; tissue BD Gentest; host or cells: pooled human liver microsomes
Assay: CYP inhibition assay in human liver microsomes (LC-MS/MS cocktail), midazolam to 1-OH-midazolam
Format: in vitro ADME
Procedure: For the experimental method, the reference method was used. […] The reaction mixture, excluding NGS, underwent pre-incubation at 37 °C for 5 min, followed by further incubation with NGS for 30 min in a water bath. […] Post incubation, the reaction was halted by adding 50 µL ice-cold 1% formic acid acetonitrile. After centrifugation at 13,200 rpm for 5 min, the supernatant was collected from the sample and subjected to analysis via an LC-MS/MS system. All experiments were performed in triplicate.
For the experimental method, the reference method was used. […] The HPLC mobile phases comprised (A) 0.1% formic acid and (B) 0.1% formic acid in 90% acetonitrile. […] The total run time was 11.0 min, and the injection volume was 5 µL. Mass detection was conducted in the positive ion mode using multiple reaction monitoring (MRM). Specific MRM transitions for each analyte are detailed in Table S4.

T1 sequence (P08684 whole entry): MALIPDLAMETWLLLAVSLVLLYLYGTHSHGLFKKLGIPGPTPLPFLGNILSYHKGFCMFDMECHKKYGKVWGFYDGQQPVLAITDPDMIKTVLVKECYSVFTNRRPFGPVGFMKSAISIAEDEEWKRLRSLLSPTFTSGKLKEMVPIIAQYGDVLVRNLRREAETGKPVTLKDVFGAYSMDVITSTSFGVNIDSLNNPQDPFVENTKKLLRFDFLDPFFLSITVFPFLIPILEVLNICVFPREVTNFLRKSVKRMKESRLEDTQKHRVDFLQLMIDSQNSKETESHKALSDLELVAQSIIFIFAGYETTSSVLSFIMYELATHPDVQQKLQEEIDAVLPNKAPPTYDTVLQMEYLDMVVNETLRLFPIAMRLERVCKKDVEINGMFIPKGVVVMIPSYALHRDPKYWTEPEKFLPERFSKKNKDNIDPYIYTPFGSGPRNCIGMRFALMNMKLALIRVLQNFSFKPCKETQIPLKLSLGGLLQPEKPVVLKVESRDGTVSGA

With `N[C@H]1C(O)O[C@H](CO)[C@@H](O)[C@@H]1O` (some centres unmarked) [GCS, glucosamine] the “Remaining Activities (% of Control, n = 3)” value (test substance 0.3 μM) was 104.4 ± 13.5 % of Control, the “Remaining Activities (% of Control, n = 3)” value (test substance 1 μM) was 103.5 ± 3.2 % of Control and the “Remaining Activities (% of Control, n = 3)” value (test substance 3 μM) was 98.3 ± 1.9 % of Control. For the same compound, the “Remaining Activities (% of Control, n = 3)” value (test substance 10 μM) was 97.2 ± 1.5 % of Control, the “Remaining Activities (% of Control, n = 3)” value (test substance 30 μM) was 96.9 ± 6.1 % of Control and the “Remaining Activities (% of Control, n = 3)” value (test substance 100 μM) was 95.2 ± 8.2 % of Control. The “Remaining Activities (% of Control, n = 3)” value (test substance 300 μM) was 91.0 ± 3.3 % of Control and the “Remaining Activities (% of Control, n = 3)” value (test substance 1000 μM) was 88.7 ± 12.1 % of Control.

Source: article PMC10745882, “Investigation of Drug-Interaction Potential for Arthritis Dietary Supplements: Chondroitin Sulfate, Glucosamine, and Methylsulfonylmethane” (Molecules, 2023)
